Assay results: article PMC6724072, “Biotransformation of the Mycotoxin Enniatin B1 by CYP P450 3A4 and Potential for Drug-Drug Interactions” (Metabolites, 2019)
Like-named read-outs stand apart in the source and are kept apart here.

Assays:
CYP3A4 [1] = molecular target: T1, CYP3A4 (Homo sapiens, UniProt P08684, S18F)
CYP3A4 [2] = test system: CYP3A4; parameters: method as in PMID 16467307; conditions: read-out: Ks; cited from earlier work
CYP3A [3] = test system: CYP3A
CYP3A4/5 = conditions: HLM, 10 µM DON and […] ENNB1
CYP3A4 [4] = molecular target: T1, CYP3A4; conditions: ND; 15 min; DON 10 µM and 50 µM; different ENNB1 concentrations
CYP3A [5] = conditions: porcine hepatic microsomes; cited from earlier work
CYP3A4 [6] = molecular target: T1, CYP3A4; conditions: for PGS hydroxylation rate (sum of 2β- and 6β-OH-PGS): ND, without DON, mean ± SEM
[7] = parameters: method as in PMID 27632250; conditions: chicken; cited from earlier work
in vitro = conditions: human, microsomes, pH 7.4
[8] = parameters: method as in PMID 24239892, PMID 23598119; conditions: pigs; cited from earlier work
[9] = ENNB1 substrate depletion assay in human liver microsomes; assay type: in vitro ADME; conditions: HLM
Procedure: (§1) The kinetic parameters were derived in HLM assays from the substrate depletion rate constants (ke) that were determined by regression analysis of measured peak areas of the added substrate versus time curves (A(t) = b + a*e^−ket), as described before. Briefly, the assay half-lifes (t1/2, assay = ln2/ke) and assay clearances (CLassay = Vassay*ke) were calculated under consideration of the assay volume (Vassay). Disregarding the potential protein binding of the substrate in the reaction mixture (assuming that the fraction unbound in the assay (fu, assay ~ 1)), the determined assay clearances approximated the intrinsic assay clearances (CLint, assay), which can be described by the Michaelis–Menten equation parameters maximal velocity (vmax, assay) and […] (KM, assay) under the condition that the substrate concentration is well below the KM-value (CLint, assay = vmax, assay/KM, assay). The KM, assay for ENNB1 depletion was determined with different initial concentrations by plotting the determined depletion rate constants versus the respective concentrations. The inflection point of the curve in a lin-log plot represented the KM-value, which occurred when ke is half of the theoretical maximum k0 at infinitesimally low ENNB1 concentrations (ke = k0[ENNB1]→0 *(1 − [ENNB1]/([ENNB1] + KM)).
ENNB1 and its major biotransformation products were analysed while using a Finnigan LTQ linear ion trap mass spectrometer (Thermo Fisher Scientific Inc., Waltham, MA, USA) that was coupled to an ACQUITY UPLC System (Waters). Separation was achieved on a 50 × 2.1-mm i.d. C18 3-μm SunFire column (Waters) with 0.5 μm pre-column filter (Supelco, Bellefonte, PA, USA). The mobile phase was composed of water (A) and MeCN (B) (both containing 2 mM NH4COOH and 2 mM HCOOH). The optimised linear gradient started at 40% B and was held for 1.5 min, before it was raised to […] over 14.5 min. The column was flushed with […] for 2 min, returned to 40% B, and equilibrated for 2.0 min. The total run time was 20 min.
ENNB1 and its putative metabolites were identified by their molecular weights (mass-to-charge (m/z) ratios) and specific retention times. In addition, the MS^n data of the sodiated molecular ions were specified in fragmentation experiments and used for confirmation. The measured peak areas of the ammoniated molecular ions ([M+NH4]^+) were used for the determination of in vitro kinetic parameters and for quantification purposes.

[10] = In vitro-to-in vivo extrapolation of kinetic parameters (well-stirred liver model); assay type: in vitro ADME
Procedure: as §1
The CLint, assay in HLM was upscaled to the assay-independent, intrinsic liver clearance (CLint = CLint, assay*MRI*RLW/Protassay) by considering the amounts of microsomal protein in the assay (Protassay), human relative liver weight (RLW), and human microsomal recovery index (MRI) (Table 1). In vitro-to-in vivo extrapolation (IVIVE) was performed by applying the well-stirred liver model and calculating the systemic blood clearances (CLb) from the CLint, while considering the human hepatic blood flow (Q) (CLb = Q*CLint*fu,b/(Q + CLint*fu,b)). […] The maximal bioavailability (fmax) after oral application was calculated under the assumption of complete absorption from the gastrointestinal tract (fa = 1) as fmax = 1 − CLb/Q.

female mice = test system: female mice; parameters: method as in doi:10.2903/sp.efsa.2018.EN-1406; conditions: cited from earlier work
CYP3A [11] = assay: in vitro; conditions: human, microsomes, pH 7.4
CYP3A4 [12] = conditions: cited from earlier work

T1 sequence (P08684 with tags, fused parts or gaps S18F limits assumed): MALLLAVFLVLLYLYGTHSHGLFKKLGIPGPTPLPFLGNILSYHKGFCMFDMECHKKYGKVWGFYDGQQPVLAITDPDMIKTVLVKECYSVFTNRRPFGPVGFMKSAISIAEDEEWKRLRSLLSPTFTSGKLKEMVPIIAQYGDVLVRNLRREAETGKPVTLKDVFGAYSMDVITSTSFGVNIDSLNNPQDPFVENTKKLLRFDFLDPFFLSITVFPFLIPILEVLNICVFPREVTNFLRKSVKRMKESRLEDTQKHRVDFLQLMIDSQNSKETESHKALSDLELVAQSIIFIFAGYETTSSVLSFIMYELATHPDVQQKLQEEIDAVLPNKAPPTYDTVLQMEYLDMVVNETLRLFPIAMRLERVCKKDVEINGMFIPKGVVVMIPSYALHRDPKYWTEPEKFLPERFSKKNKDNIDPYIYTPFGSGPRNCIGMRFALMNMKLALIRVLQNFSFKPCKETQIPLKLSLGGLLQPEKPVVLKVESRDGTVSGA
T1 sequence (P02647 79-267 partner limits assumed): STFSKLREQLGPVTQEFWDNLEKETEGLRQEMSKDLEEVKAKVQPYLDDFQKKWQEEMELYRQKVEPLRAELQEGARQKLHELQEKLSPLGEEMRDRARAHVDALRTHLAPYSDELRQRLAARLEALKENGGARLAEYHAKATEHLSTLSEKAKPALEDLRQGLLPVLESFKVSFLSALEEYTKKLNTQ

Question: Which results are given for `CC1=C[C@H]2O[C@@H]3[C@H](O)C[C@](C)([C@@]2(CO)[C@H](O)C1=O)[C@]31CO1` [DON, Deoxynivalenol]?
Answer: effect on MDZ metabolite formation profiles (CYP3A [3]; HLM, DON up to 50 µM): Only an indication of a slight change; effect on MDZ depletion kinetics (CYP3A [3]; HLM, DON up to 50 µM, data not shown): did not have a significant effect; effect on formation of ENNB1 metabolites M3/4, M5, M6 (sum) (CYP3A4/5): inhibited the formation of the hydroxylated ENNB1 metabolites M3/4, M5, and M6 in HLM significantly; effect on depletion of ENNB1 (CYP3A4/5; data not shown): did not observe a significant difference; formation of hydroxylated ENNB1 metabolites vs assays only containing ENNB1 (CYP3A4 [4]): significantly lower; reduction of CYP3A reactivity (CYP3A [5]): about 20%; inhibition of the CYP3A4-dependent metabolism of the typical substrates (CYP3A4 [6]): weak to moderate inhibition; decrease of 2-OH ATVS lactone (minor product) formation (CYP3A4 [6]; human, pH 7.4): about 20%

Question: For `CC[C@H](C)[C@H]1C(=O)O[C@H](C(C)C)C(=O)N(C)[C@@H](C(C)C)C(=O)O[C@H](C(C)C)C(=O)N(C)[C@@H](C(C)C)C(=O)O[C@H](C(C)C)C(=O)N1C` [ENNB1, Enniatin B1], which bioavailability [7] is on record?
Answer: The bioavailability was less than 10%.

Question: What about the “1,4-OH-MDZ level relative to ENNB1-free metabolism” value (CYP3A [3]; HLM, after 60 min, with ENNB1) of the same compound?
Answer: Its value is “reduced to the half”.

Question: And the “1-OH-MDZ level relative to ENNB1-free metabolism” value (CYP3A [3]; HLM, after 60 min, with ENNB1)?
Answer: The value was “returned to normal”.

Question: And the “MDZ metabolite formation in presence of ENNB1” value (CYP3A [3]; HLM, first 15 min)?
Answer: The value was “generally hindered”.

Question: What about the half-life at […] (in vitro) of the same compound?
Answer: The half-life at […] was 12 min.

Question: And the bioavailability [8]?
Answer: Its bioavailability is greater than 90%.

Question: And the “spin shift of CYP3A4 haem iron (binding)” value (CYP3A4 [1]; ND, ENNB1 21 µM)?
Answer: Its value is “visible spectral change”.

Question: What about the “CLint, assay” value ([9]; 1 mL assay, 2 mg microsomal protein) of the same compound?
Answer: The value was 0.07 mL/min.

Question: And the unchanged molecule detectable ([9]; incubation of 6 µM for 60 min)?
Answer: The unchanged molecule detectable was “less than 4%”.

Question: What about the k el at 3 µM ([9]; human, human liver microsomes, pH 7.4, ENNB1 concentration 3 µM, read-out: ke (converted)) of the same compound?
Answer: Its k el at 3 µM is 0.00108 s⁻¹.

Question: And the half-life at 3 µM ([9]; human, human liver microsomes, pH 7.4, substrate concentration 3 µM, read-out: t1/2, assay)?
Answer: The half-life at 3 µM was 11 min.

Question: And the Km ([9]; human, liver microsomes, pH 7.4, derived from depletion assays with three ENNB1 concentrations (0.8; 3; 6 µM))?
Answer: The Km was 10.1 µM.

Question: What about the bioavailability ([10]; human liver microsomes, po, assuming complete absorption from the gastrointestinal tract, read-out: fmax (maximum oral bioavailability)) of the same compound?
Answer: The bioavailability was 45%.

Question: And the CLint ([10]; human, MRI = 40 mg/g, RLW = 22 g/kg BW)?
Answer: Its CLint is 1.72 L/(h×kg×BW).

Question: What about the CLb ([10]; human, well-stirred model, Q = 1.4 L/(h × kg), fu,b ≈ 1) of the same compound?
Answer: Its CLb is 0.77 L/(h×kg×BW).

Question: What does the source list for `CC(C)[C@H]1C(=O)O[C@H](C(C)C)C(=O)N(C)[C@@H](C(C)C)C(=O)O[C@H](C(C)C)C(=O)N(C)[C@@H](C(C)C)C(=O)O[C@H](C(C)C)C(=O)N1C` [ENNB, Enniatin B]?
Answer: bioavailability [7]: < 10%; no-observed adverse effect level (NOAEL) (female mice): 0.18 mg/kg body-weight (bw)/day; bioavailability [8]: > 90%

Question: For `Cc1ncc2n1-c1ccc(Cl)cc1C(c1ccccc1F)=NC2` [MDZ, midazolam], which “initial MDZ detectable” value (CYP3A [3]; human, pH 7.4) is on record?
Answer: Its value is “about 0.2%”.

Question: And the half-life (CYP3A [11])?
Answer: The half-life was 12 min.

Question: What about the Km (CYP3A4 [12]; read-out: KM,1-OH-MDZ, 1-hydroxylation of MDZ) of the same compound?
Answer: Its Km is 3.9 µM.

Question: And the Km (CYP3A4 [12]; read-out: KM,4-OH-MDZ, 4-hydroxylation of MDZ)?
Answer: Its Km is 77.5 µM.

Question: For `CC(=O)[C@H]1CC[C@H]2[C@@H]3CCC4=CC(=O)CC[C@]4(C)[C@H]3CC[C@]12C` [PGS, progesterone, reference compound], which “PGS hydroxylation rate (sum of 2β- and 6β-OH-PGS)” value (CYP3A4 [6]; PGS 15 μM) is on record?
Answer: Its value is 5.3 ± 0.6 nmol/(min×nmol CYP3A4).

Question: And the “PGS hydroxylation rate (sum of 2β- and 6β-OH-PGS)” value (CYP3A4 [6]; PGS 40 μM)?
Answer: Its value is 10.4 ± 1.0 nmol/(min×nmol CYP3A4).
